Tests used:
[1] = biological target: Sodium channel protein type 3 subunit alpha (Homo sapiens, UniProt Q9NY46); test: Modulation of human Nav1.3 by automated patch clamp electrophysiology assay
[2] = biological target: Sodium channel protein type 9 subunit alpha (Homo sapiens, UniProt Q15858); test: Modulation of human Nav1.7 by automated patch clamp electrophysiology assay
[3] = biological target: Sodium channel protein type 5 subunit alpha (Homo sapiens, UniProt Q14524); test: Modulation of human Nav1.5 by automated patch clamp electrophysiology assay
[4] = biological target: Sodium channel protein type 4 subunit alpha (Homo sapiens, UniProt P35499); test: Modulation of human Nav1.4 by automated patch clamp electrophysiology assay
Sodium channel protein type 4 subunit alpha, sequence (P35499 whole entry): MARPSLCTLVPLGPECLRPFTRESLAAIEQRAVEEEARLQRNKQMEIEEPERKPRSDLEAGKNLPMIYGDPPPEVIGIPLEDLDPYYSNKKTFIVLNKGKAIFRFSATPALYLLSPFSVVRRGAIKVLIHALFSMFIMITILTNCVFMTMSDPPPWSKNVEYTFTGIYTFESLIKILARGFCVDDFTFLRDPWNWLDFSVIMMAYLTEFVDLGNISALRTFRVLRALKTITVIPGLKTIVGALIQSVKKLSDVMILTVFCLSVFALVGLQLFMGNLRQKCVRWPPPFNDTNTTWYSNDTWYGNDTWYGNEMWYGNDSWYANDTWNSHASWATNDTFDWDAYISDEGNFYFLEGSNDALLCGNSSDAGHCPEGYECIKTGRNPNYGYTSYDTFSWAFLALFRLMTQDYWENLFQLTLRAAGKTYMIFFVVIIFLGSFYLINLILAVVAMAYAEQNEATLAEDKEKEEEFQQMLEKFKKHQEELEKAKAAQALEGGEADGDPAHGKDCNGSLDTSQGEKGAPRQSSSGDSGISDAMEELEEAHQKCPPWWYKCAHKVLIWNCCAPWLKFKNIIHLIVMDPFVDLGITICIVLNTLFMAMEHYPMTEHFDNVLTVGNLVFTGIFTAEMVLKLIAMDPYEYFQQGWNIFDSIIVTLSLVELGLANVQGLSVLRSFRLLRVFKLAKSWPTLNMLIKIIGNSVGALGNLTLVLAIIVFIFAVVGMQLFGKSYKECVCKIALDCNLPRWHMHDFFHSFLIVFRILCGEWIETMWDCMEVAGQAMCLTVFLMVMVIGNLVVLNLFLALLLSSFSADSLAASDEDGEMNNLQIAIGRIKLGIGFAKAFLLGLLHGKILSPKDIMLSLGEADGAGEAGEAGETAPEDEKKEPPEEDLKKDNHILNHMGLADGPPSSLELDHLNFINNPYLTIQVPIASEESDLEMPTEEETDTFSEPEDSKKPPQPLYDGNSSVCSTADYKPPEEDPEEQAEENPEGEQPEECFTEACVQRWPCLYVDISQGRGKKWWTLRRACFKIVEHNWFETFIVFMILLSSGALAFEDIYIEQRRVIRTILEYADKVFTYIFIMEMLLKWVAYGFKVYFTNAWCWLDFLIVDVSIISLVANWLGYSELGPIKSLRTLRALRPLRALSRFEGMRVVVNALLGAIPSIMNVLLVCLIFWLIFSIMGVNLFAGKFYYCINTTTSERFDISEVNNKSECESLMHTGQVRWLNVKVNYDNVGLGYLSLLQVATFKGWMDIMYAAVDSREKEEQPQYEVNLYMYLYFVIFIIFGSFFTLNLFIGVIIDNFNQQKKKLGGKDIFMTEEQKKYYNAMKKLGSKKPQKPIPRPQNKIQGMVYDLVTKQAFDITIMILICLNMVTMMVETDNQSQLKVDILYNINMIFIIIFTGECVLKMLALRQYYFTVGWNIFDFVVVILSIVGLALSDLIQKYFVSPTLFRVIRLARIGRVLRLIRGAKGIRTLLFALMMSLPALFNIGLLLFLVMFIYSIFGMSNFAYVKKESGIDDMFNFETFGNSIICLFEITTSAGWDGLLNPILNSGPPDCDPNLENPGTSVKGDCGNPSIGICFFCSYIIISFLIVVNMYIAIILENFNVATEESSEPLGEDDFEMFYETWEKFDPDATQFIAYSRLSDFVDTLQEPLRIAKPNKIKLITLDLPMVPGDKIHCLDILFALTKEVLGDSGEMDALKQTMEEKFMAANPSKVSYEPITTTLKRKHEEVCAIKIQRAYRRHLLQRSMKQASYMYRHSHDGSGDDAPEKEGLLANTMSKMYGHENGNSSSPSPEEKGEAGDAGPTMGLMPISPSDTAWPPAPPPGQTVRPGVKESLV

Sodium channel protein type 9 subunit alpha, sequence (Q15858 whole entry): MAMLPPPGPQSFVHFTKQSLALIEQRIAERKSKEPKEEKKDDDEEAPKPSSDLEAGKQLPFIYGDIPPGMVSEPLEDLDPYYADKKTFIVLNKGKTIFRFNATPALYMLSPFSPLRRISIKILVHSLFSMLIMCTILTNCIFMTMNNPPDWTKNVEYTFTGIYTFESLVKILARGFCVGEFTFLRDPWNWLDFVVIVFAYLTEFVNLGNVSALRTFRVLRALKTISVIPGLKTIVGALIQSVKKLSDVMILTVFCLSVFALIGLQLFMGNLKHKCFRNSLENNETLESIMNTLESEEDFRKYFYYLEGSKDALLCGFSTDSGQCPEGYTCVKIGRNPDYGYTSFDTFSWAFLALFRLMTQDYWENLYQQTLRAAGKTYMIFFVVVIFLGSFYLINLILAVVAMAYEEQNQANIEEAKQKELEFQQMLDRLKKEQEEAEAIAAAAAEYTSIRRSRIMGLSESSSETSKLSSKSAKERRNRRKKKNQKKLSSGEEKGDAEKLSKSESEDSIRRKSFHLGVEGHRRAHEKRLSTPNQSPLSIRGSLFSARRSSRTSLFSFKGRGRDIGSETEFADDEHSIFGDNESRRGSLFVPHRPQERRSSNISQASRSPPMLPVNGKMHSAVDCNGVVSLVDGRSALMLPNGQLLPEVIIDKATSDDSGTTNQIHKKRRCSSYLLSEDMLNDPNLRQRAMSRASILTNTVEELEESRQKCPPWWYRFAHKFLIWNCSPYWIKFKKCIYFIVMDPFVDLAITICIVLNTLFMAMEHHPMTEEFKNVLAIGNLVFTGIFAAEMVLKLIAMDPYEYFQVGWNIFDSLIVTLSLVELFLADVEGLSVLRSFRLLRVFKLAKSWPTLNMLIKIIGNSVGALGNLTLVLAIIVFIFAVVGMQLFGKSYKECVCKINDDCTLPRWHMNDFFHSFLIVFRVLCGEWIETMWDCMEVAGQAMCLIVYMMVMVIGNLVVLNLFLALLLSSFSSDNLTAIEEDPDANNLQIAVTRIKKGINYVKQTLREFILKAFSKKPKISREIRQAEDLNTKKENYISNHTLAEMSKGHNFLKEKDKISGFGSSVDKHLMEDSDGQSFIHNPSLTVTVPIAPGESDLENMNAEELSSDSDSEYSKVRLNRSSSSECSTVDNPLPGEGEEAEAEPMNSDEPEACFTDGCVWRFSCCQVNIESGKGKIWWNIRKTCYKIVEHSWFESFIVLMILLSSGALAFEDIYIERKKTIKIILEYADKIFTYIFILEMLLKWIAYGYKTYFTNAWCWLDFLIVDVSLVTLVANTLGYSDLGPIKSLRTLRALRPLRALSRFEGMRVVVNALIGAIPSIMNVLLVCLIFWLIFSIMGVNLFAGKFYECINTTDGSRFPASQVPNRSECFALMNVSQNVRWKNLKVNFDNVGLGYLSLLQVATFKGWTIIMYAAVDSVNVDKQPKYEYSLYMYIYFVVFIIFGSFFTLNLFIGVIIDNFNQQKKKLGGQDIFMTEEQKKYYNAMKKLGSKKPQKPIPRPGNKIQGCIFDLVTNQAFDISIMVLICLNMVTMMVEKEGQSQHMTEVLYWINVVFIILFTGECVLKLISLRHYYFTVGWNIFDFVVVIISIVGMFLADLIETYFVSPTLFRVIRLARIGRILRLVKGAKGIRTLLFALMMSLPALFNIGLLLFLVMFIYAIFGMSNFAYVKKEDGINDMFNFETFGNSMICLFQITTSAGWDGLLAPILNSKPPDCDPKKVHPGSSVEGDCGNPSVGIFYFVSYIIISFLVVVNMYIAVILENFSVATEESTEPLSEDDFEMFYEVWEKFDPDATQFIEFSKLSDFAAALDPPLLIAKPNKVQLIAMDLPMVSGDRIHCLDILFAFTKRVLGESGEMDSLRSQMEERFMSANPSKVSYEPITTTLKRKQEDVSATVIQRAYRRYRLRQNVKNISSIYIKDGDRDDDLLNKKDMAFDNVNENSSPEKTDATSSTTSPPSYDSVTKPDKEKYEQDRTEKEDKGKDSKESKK

SMILES	IC50 [1] [µM]	IC50 [2] [µM]	IC50 [3] [µM]	IC50 [4] [µM]
Nc1nc2c(s1)C[C@@H](NC(=O)c1ccc[nH]1)CC2	> 30	21	> 30	> 30
Nc1nc2c(s1)CC(CNC(=O)c1ccc[nH]1)CC2 (stereo unspecified)	28	20	21	> 30
Nc1nc2c(s1)CC(CNC(=O)[C@@H]1CCCN1)CC2 (stereo partly specified)	> 30	> 30	> 30	> 30
Cn1cccc1C(=O)N[C@H]1CCc2nc(N)sc2C1	24	> 30	> 30	16
Nc1nc2c(s1)C[C@@H](NC(=O)c1cc3ccccc3[nH]1)CC2	> 30	29	> 30	16
Nc1nc2c(s1)C[C@@H](NC(=O)[C@@H]1CCCN1)CC2	> 30	> 30	> 30	25
Nc1nc2c(s1)CC(CNC(=O)c1cc3ccccc3[nH]1)CC2 (stereo unspecified)	16	23	> 30	21
CC(C)(C)OC(=O)N1CCC[C@H]1C(=O)NCC1CCc2nc(N)sc2C1 (stereo partly specified)	26	> 30	20	> 30
Nc1nc2c(s1)C[C@@H](NC(=O)c1ccco1)CC2	27	> 30	> 30	> 30
Nc1nc2c(s1)C[C@@H](NC(=O)c1cc(Br)c[nH]1)CC2	26	18	21	> 30
Nc1nc2c(s1)CC(CNC(=O)c1cc(Br)c(Br)[nH]1)CC2 (stereo unspecified)	18	23	> 30	> 30
Nc1nc2c(s1)C[C@@H](NCc1ccc[nH]1)CC2	25	21	> 30	30
Nc1nc2c(s1)C[C@@H](NC(=O)c1cc(Br)c(Br)[nH]1)CC2	26	16	> 30	15
CC(C)(C)OC(=O)N1CCC[C@H]1C(=O)N[C@H]1CCc2nc(N)sc2C1	> 30	> 30	> 30	8

— ChEMBL document CHEMBL3085695, “Novel state-dependent voltage-gated sodium channel modulators, based on marine alkaloids from Agelas sponges” (Eur J Med Chem, 2013)
